Measured values published in patent publication US20070049593A1 (priority 2004, published 2007).

The compounds below were run against T1, HCV polymerase (Hepatitis C virus genotype 1b, UniProt P26663) (assay: biochemical). Settings: not given.
T1 construct: a region encoding NS5B (J Virol 1991 March, 65(3), 1105-13, 544 amino acids after deletion of 47 amino acids on the C-terminal); 6xHis (C); made in house; host or cells: Escherichia coli
T1 sequence (P26663 2420-2963): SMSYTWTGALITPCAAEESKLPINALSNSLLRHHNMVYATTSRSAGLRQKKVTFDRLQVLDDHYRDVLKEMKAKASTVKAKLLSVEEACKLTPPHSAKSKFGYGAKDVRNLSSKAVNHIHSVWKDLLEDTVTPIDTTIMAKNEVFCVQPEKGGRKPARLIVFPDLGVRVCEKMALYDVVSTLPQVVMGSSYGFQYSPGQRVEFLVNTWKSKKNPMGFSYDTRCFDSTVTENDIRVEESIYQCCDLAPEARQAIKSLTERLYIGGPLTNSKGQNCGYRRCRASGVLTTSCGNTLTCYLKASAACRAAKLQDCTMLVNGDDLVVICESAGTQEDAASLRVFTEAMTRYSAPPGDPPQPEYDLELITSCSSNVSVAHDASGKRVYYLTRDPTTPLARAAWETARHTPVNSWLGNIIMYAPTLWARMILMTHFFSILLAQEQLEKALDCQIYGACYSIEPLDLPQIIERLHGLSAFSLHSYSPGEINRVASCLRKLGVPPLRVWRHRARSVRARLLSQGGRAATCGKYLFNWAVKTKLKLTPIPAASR
Design: species or system HCV BK strain
How it was run: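 Recombinant HCV BK-strain NS5B (C-terminal 47 aa deleted, His6-tagged, E. coli), 0.5 μg/ml, run with 5 μg/ml in vitro-transcribed RNA template (polyU/3′X), ATP/GTP/CTP 50 μM, UTP 2 μM plus [3H]UTP, pH 7.5, 25° C, 90 min. TCA-precipitated RNA counted by scintillation; IC50 from activity with vs without compound.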
Cc1ccc(NC(=O)C(C)(C)NC(=O)c2ccc3c(C4CCCCC4)c4n(c3c2)CCOc2ccccc2-4)cc1C(=O)O [Example 2-200, 5-{2-[(12-cyclohexyl-6,7-dihydro-5-oxa-7a-azadibenzo[a,e]azulene-9-carbonyl)amino]-2-methylpropionylamino}-2-methylbenzoic acid] gave an IC50 of less than 100 nM.
With CC(C)(NC(=O)c1ccc2c(C3CCCCC3)c3n(c2c1)CCOc1ccccc1-3)C(=O)Nc1cccc(C(=O)O)c1 [Example 2-201, 3-{2-[(12-cyclohexyl-6,7-dihydro-5-oxa-7a-azadibenzo[a,e]azulene-9-carbonyl)amino]-2-methylpropionylamino}benzoic acid] the IC50 was less than 100 nM.
CC(C)(NC(=O)c1ccc2c(C3CCCCC3)c3n(c2c1)CCOc1ccccc1-3)C(=O)Nc1ccc(O)cc1 [Example 2-202, N-[1-(4-hydroxyphenylcarbamoyl)-1-methylethyl]-12-cyclohexyl-6,7-dihydro-5-oxa-7a-azadibenzo[a,e]azulene-9-carboxamide] was tested, and the IC50 was less than 100 nM.
With CC(C)(NC(=O)c1ccc2c(C3CCCCC3)c3n(c2c1)CCOc1ccccc1-3)C(=O)NCCc1ccc(O)cc1 [Example 2-203, N-{1-[2-(4-hydroxyphenyl)ethylcarbamoyl]-1-methylethyl}-12-cyclohexyl-6,7-dihydro-5-oxa-7a-azadibenzo[a,e]azulene-9-carboxamide] the IC50 was less than 100 nM.
Compound CC(C)(NC(=O)c1ccc2c(C3CCCCC3)c3n(c2c1)CCOc1ccccc1-3)C(=O)Nc1ccc(F)cc1 [Example 2-204, N-[1-(4-fluorophenylcarbamoyl)-1-methylethyl]-12-cyclohexyl-6,7-dihydro-5-oxa-7a-azadibenzo[a,e]azulene-9-carboxamide] has an IC50 of less than 100 nM.
Compound O=C(NCCc1ccc(O)cc1)c1ccc2c(C3CCCCC3)c3n(c2c1)CCOc1ccccc1-3 [Example 2-205, N-[2-(4-hydroxyphenyl)ethyl]-12-cyclohexyl-6,7-dihydro-5-oxa-7a-azadibenzo[a,e]azulene-9-carboxamide] has an IC50 of less than 100 nM.
O=C(NCC1(O)CCCCC1)c1ccc2c(C3CCCCC3)c3n(c2c1)CCOc1ccccc1-3 [Example 2-206, N-(1-hydroxycyclohexylmethyl)-12-cyclohexyl-6,7-dihydro-5-oxa-7a-azadibenzo[a,e]azulene-9-carboxamide] was tested, and the IC50 was 100 to 1000 nM.
Compound NC(=O)[C@H](Cc1ccc(O)cc1)NC(=O)c1ccc2c(C3CCCCC3)c3n(c2c1)CCOc1ccccc1-3 [Example 2-207, N—[(S)-1-carbamoyl-2-(4-hydroxyphenyl)ethyl]-12-cyclohexyl-6,7-dihydro-5-oxa-7a-azadibenzo[a,e]azulene-9-carboxamide] has an IC50 of less than 100 nM.
Work on CC(C)(NC(=O)c1ccc2c(C3CCCCC3)c3n(c2c1)CCOc1ccccc1-3)C1CCC(C(=O)O)CC1 (stereo not shown) [Example 2-208, 4-{1-[(12-cyclohexyl-6,7-dihydro-5-oxa-7a-azadibenzo[a,e]azulene-9-carbonyl)amino]-1-methylethyl}cyclohexanecarboxylic acid] yielded an IC50 of 100 to 1000 nM.
Work on COC(=O)c1[nH]c(C(C)(C)NC(=O)c2ccc3c(C4CCCCC4)c4n(c3c2)CCOc2ccccc2-4)nc1C [Example 2-209, methyl 2-{1-[(12-cyclohexyl-6,7-dihydro-5-oxa-7a-azadibenzo[a,e]azulene-9-carbonyl)amino]-1-methylethyl]-5-methyl-3H-imidazole-4-carboxylate] yielded an IC50 of less than 100 nM.
CC(C)(CNC(=O)c1ccc(C(=O)O)cc1)NC(=O)c1ccc2c(C3CCCCC3)c3n(c2c1)CCOc1ccccc1-3 [Example 2-211, N-{2-[(12-cyclohexyl-6,7-dihydro-5-oxa-7a-azadibenzo[a,e]azulene-9-carbonyl)amino]-2-methylpropyl}terephthalamic acid] showed an IC50 of 100 to 1000 nM.
For COC(=O)c1ccc(C(=O)NCC(C)(C)NC(=O)c2ccc3c(C4CCCCC4)c4n(c3c2)CCOc2ccccc2-4)cc1 [Example 2-212, methyl N-{2-[(12-cyclohexyl-6,7-dihydro-5-oxa-7a-azadibenzo[a,e]azulene-9-carbonyl)amino]-2-methylpropyl}-terephthalamate], the IC50 was 100 to 1000 nM.
For CN(C)Cc1ccc(NC(=O)C(C)(C)NC(=O)c2ccc3c(C4CCCCC4)c4n(c3c2)CCOc2ccccc2-4)cc1 [Example 2-213, N-[1-(4-dimethylaminomethylphenylcarbamoyl)-1-methylethyl]-12-cyclohexyl-6,7-dihydro-5-oxa-7a-azadibenzo[a,e]azulene-9-carboxamide], the IC50 was less than 100 nM.
For CC(C)(NC(=O)c1ccc2c(C3CCCCC3)c3n(c2c1)CCOc1ccccc1-3)c1nc2cc(C(=O)O)ccc2[nH]1 [Example 2-214, 2-{1-[(12-cyclohexyl-6,7-dihydro-5-oxa-7a-azadibenzo[a,e]azulene-9-carbonyl)amino]-1-methylethyl}-1H-benzimidazole-5-carboxylic acid], the IC50 was less than 100 nM.
For CC(C)(Cc1ccc(C(=O)O)cc1)NC(=O)c1ccc2c(C3CCCCC3)c3n(c2c1)CCOc1ccccc1-3 [Example 2-216, 4-{2-[(12-cyclohexyl-6,7-dihydro-5-oxa-7a-azadibenzo[a,e]azulene-9-carbonyl)amino]-2-methylpropyl}benzoic acid], the IC50 was 100 to 1000 nM.
Work on O=C(N[C@H](CO)Cc1ccc(O)cc1)c1ccc2c(C3CCCCC3)c3n(c2c1)CCOc1ccccc1-3 [Example 2-217, N—[(S)-1-hydroxymethyl-2-(4-hydroxyphenyl)ethyl]-12-cyclohexyl-6,7-dihydro-5-oxa-7a-azadibenzo[a,e]azulene-9-carboxamide] yielded an IC50 of less than 100 nM.
Compound COC(=O)[C@H](Cc1ccc(OC)cc1)NC(=O)c1ccc2c(C3CCCCC3)c3n(c2c1)CCOc1ccccc1-3 [Example 2-218, methyl (S)-2-[(12-cyclohexyl-6,7-dihydro-5-oxa-7a-azadibenzo[a,e]azulene-9-carbonyl)amino]-3-(4-methoxyphenyl)propionate] has an IC50 of less than 100 nM.
COc1ccc(CC(C)(C)NC(=O)c2ccc3c(C4CCCCC4)c4n(c3c2)CCOc2ccccc2-4)cc1 [Example 2-219, N-[2-(4-methoxyphenyl)-1,1-dimethylethyl]-12-cyclohexyl-6,7-dihydro-5-oxa-7a-azadibenzo[a,e]azulene-9-carboxamide] was tested, and the IC50 was 100 to 1000 nM.
Compound CC(C)(Cc1ccc(O)cc1)NC(=O)c1ccc2c(C3CCCCC3)c3n(c2c1)CCOc1ccccc1-3 [Example 2-220, N-[2-(4-hydroxyphenyl)-1,1-dimethylethyl]-12-cyclohexyl-6,7-dihydro-5-oxa-7a-azadibenzo[a,e]azulene-9-carboxamide] has an IC50 of 100 to 1000 nM.
Work on O=C(O)c1ccc2c(C3CCCCC3)c3n(c2c1)CCOc1c-3cccc1N(CCc1ccccc1)CCN1CCCCC1 [Example 2-221, 12-cyclohexyl-4-{N-phenethyl-N-[2-(piperidin-1-yl)ethyl]amino}-6,7-dihydro-5-oxa-7a-azadibenzo[a,e]azulene-9-carboxylic acid] yielded an IC50 of less than 100 nM.
Work on CC(=O)N1CCC(NC(=O)c2ccc3c(C4CCCCC4)c4n(c3c2)CCOc2ccccc2-4)(C(=O)Nc2ccc(/C=C/C(=O)O)cc2)CC1 [Example 2-222, (E)-3-[4-({1-acetyl-4-[(12-cyclohexyl-6,7-dihydro-5-oxa-7a-azadibenzo[a,e]azulene-9-carbonyl)amino]piperidine-4-carbonyl}amino)phenyl]acrylic acid] yielded an IC50 of less than 100 nM.
CN1CCC(NC(=O)c2ccc3c(C4CCCCC4)c4n(c3c2)CCOc2ccccc2-4)(C(=O)Nc2ccc(/C=C/C(=O)O)cc2)CC1 [Example 2-223, (E)-3-[4-({4-[(12-cyclohexyl-6,7-dihydro-5-oxa-7a-azadibenzo[a,e]azulene-9-carbonyl)amino]-1-methylpiperidine-4-carbonyl]amino)phenyl]acrylic acid] gave an IC50 of less than 100 nM.
CC(C)(COc1ccc(N)cc1)NC(=O)c1ccc2c(C3CCCCC3)c3n(c2c1)CCOc1ccccc1-3 [Example 2-224, N-[2-(4-aminophenoxy)-1,1-dimethylethyl]-12-cyclohexyl-6,7-dihydro-5-oxa-7a-azadibenzo[a,e]azulene-9-carboxamide] showed an IC50 of less than 100 nM.
CC(C)(NC(=O)c1ccc2c(C3CCCCC3)c3n(c2c1)CCOc1ccccc1-3)c1nc2ccc(C(N)=O)cc2[nH]1 [Example 2-225, N-[1-(6-carbamoyl-1H-benzimidazol-2-yl)-1-methylethyl]-12-cyclohexyl-6,7-dihydro-5-oxa-7a-azadibenzo[a,e]azulene-9-carboxamide] gave an IC50 of less than 100 nM.
Compound CC(C)(COc1ccc(N2CCCC2=O)cc1)NC(=O)c1ccc2c(C3CCCCC3)c3n(c2c1)CCOc1ccccc1-3 [Example 2-226, N-{1,1-dimethyl-2-[4-(2-oxopyrrolidin-1-yl)phenoxy]ethyl}-12-cyclohexyl-6,7-dihydro-5-oxa-7a-azadibenzo[a,e]azulene-9-carboxamide] has an IC50 of less than 100 nM.
For Cc1nc(C(C)(C)NC(=O)c2ccc3c(C4CCCCC4)c4n(c3c2)CCOc2ccccc2-4)[nH]c1C(=O)O [Example 2-227, 2-{1-[(12-cyclohexyl-6,7-dihydro-5-oxa-7a-azadibenzo[a,e]azulene-9-carbonyl)amino]-1-methylethyl}-5-methyl-3H-imidazole-4-carboxylic acid], the IC50 was less than 100 nM.
Work on CC(C)(NC(=O)c1ccc2c(C3CCCCC3)c3n(c2c1)CCOc1ccccc1-3)c1ccc(OCc2ccccc2)cc1 [Example 2-228, N-[1-(4-benzyloxyphenyl)-1-methylethyl]-12-cyclohexyl-6,7-dihydro-5-oxa-7a-azadibenzo[a,e]azulene-9-carboxamide] yielded an IC50 of less than 100 nM.

Same assay, conditions: read-out: HCV polymerase inhibitory activity IC50; 25° C., 90 min; [5,6-3H]UTP incorporation into RNA
Compound COC(=O)C(Cc1c[nH]c2ccc(O)cc12)NC(=O)c1ccc2c(C3CCCCC3)c3n(c2c1)CCOc1ccccc1-3 (stereo not shown) [Example 2-210] has an IC50 of less than 100 nM.
